Measured values taken from patent US20210402211A1, “LIGHT-HYDROGEN THERAPY INCLUDING LIGHTING MODULE, LIGHTING APPARATUS, AND LIGHTING METHOD FOR PARKINSON'S DISEASE PATIENTS” (priority 2020, published 2021).

System: PD patients
Conditions: without light therapy, in a short time

## [HH] [hydrogen, Molecular hydrogen]
  effectiveness of hydrogen therapy alone: not that effective
